Test results reported in patent US6936585B2, “Corticotropin releasing factor 2 receptor agonists” (priority 2002, dated 2005).
Read-outs that look alike come from different tables or passages of the source. Ends that are not written are not given here. Peptide text beside a SMILES is read from it.

Assays:
CRF2R = target: T1, CRF2R (Homo sapiens, UniProt Q13324); assay: CRF2R agonist activation (EC50 / Emax), called comparative CRF binding; format: cell-based
T1 sequence (Q13324 1-411): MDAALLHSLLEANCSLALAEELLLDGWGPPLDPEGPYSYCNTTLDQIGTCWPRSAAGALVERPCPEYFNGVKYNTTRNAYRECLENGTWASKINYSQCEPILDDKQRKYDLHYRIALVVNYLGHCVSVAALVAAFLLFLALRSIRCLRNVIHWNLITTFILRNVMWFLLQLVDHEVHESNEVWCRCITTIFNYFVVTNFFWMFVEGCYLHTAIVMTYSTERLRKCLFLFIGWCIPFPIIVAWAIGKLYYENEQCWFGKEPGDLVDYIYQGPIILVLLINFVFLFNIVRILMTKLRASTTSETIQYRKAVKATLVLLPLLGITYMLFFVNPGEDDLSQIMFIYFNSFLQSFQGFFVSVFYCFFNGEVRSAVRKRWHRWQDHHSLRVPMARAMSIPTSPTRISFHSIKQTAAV
Text: (§1) The pharmacological activity and selectivity of the peptides of present invention can be determined using published test procedures. See, e.g, U.S. patent application Ser. No. 09/799,978 (now issued U.S. Pat. No. 6,670,140). Because CRF2R and CRF1R are homologous proteins, it is expected that a certain proportion of agonists for CRF2R will also function as agonists of CRF1R. As discussed above, activation of CRF1R induces activation of the HPA axis since increased corticosteroid production leads to skeletal muscle atrophy. In most cases in which an increase in muscle mass or function is desired, it is not desirable to activate the HPA axis.
(§2) Cell-based assays include the steps of contacting cells which express CRF1R or CRF2R with a peptide of the present invention or control and measuring activation of the CRFR by measuring the expression or activity of components of the CRFR signal transduction pathways.
(§3) For example, after contact with a peptide of the present invention, lysates of the cells can be prepared and assayed for induction of cAMP. cAMP is induced in response to Gαs activation. Because Gαs is activated by receptors other than CRFR and because a test peptide may be exerting its effect through CRFRs or by another mechanism, two control comparisons are relevant for determining whether the peptide increases levels of cAMP via activation of a CRFR. One control compares the cAMP level of cells contacted with the peptide and the cAMP level of cells contacted with a control compound (i.e., the vehicle in which the peptide is dissolved).
(§4) In one example, cAMP induction is measured with the use of DNA constructs containing the cAMP responsive element linked to any of a variety of reporter genes can be introduced into cells expressing CRFRs. Such reporter genes include, but are not limited to, chloramphenicol acetyltransferase (CAT), luciferase, glucuronide synthetase, growth hormone, fluorescent proteins (e.g., Green Fluorescent Protein), or alkaline phosphatase. Following exposure of the cells to the peptide, the level of reporter gene expression can be quantitated to determine the peptide's ability to increase cAMP levels and thus determine the peptide's ability to activate the CRFR.
(§5) In addition to using cells expressing full length CRFRs, cells can be engineered which express CRFRs containing the ligand binding domain of the receptor coupled to, or physically modified to contain, reporter elements or to interact with signaling proteins. For example, a wild type CRFR or CRFR fragment can be fused to a G-protein resulting in activation of the fused G-protein upon agonist binding to the CRFR portion of the fusion protein. […] In addition, alternative pathways for induction of the CRE reporter could be eliminated to reduce basal levels.

CRF1R = target: T2, CRF1R (Homo sapiens, UniProt P34998); assay: CRF1R agonist activation (EC50 / Emax), called comparative CRF binding; format: cell-based
T2 sequence (P34998 24-415): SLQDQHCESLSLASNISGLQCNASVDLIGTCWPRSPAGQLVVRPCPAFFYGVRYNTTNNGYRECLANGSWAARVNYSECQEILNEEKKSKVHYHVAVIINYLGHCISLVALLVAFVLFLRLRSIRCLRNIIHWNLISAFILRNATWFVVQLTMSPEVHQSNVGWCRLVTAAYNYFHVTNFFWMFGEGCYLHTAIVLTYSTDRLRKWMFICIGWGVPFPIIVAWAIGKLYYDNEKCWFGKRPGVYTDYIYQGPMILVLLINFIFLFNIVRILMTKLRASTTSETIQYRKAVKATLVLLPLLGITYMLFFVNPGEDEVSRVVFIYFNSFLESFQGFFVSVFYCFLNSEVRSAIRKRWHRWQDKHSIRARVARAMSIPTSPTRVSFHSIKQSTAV
Text: as §1, §2, §3, §4, §5

| Compound | Emax (CRF2R; read-out: CRF2R Emax) [%] | Emax (CRF1R; read-out: CRF1R Emax) [%] | other results |
| --- | --- | --- | --- |
| CC[C@H](C)[C@H](NC(=O)[C@H](CCC(N)=O)NC(=O)[C@H](C)NC(=O)[C@H](CC(N)=O)NC(=O)[C@H](CCC(N)=O)NC(=O)[C@H](CCC(=O)O)NC(=O)[C@H](C)NC(=O)[C@H](CCCNC(=N)N)NC(=O)[C@H](CCC(=O)O)NC(=O)[C@H](CCCNC(=N)N)NC(=O)[C@H](CCC(N)=O)NC(=O)[C@H](CO)NC(=O)[C@H](CCC(N)=O)NC(=O)[C@@H](NC(=O)[C@H](CCCCN)NC(=O)[C@H](CCC(=O)O)NC(=O)[C@H](CC(C)C)NC(=O)[C@H](CCC(=O)O)NC(=O)[C@H](CC(C)C)NC(=O)[C@H](CC(C)C)NC(=O)[C@@H](NC(=O)[C@H](CCCNC(=N)N)NC(=O)[C@H](CC(C)C)NC(=O)[C@H](CC(C)C)NC(=O)[C@H](CC(C)C)NC(=O)[C@H](CC(C)C)NC(=O)[C@@H]1CCCN1C(=O)[C@H](CC(C)C)NC(=O)[C@H](CC(=O)O)NC(=O)[C@@H](NC(=O)[C@H](CO)NC(=O)[C@H](CC(C)C)NC(=O)[C@H](CO)NC(=O)[C@@H]1CCCN1C(=O)[C@H](CC(N)=O)NC(=O)[C@@H](N)CC(=O)O)[C@@H](C)CC)[C@@H](C)O)[C@@H](C)O)C(=O)N[C@@H](Cc1ccccc1)C(=O)N[C@@H](C)C(=O)N[C@@H](Cc1c[nH]cn1)C(=O)N[C@H](C(N)=O)C(C)C [compound 324] (H-DNPSLSIDLPLLLLRTLLELEKTQSQRERAEQNAQIFAHV-NH2; N-terminus assumed) | 100 | 46.6 | EC50 (CRF2R; read-out: CRF2R EC50): 17.2 nM; EC50 (CRF1R; read-out: CRF1R EC50): ≥ 1000 nM |
| CC[C@H](C)[C@H](N)C(=O)N[C@H](C(=O)N[C@@H](CC(C)C)C(=O)N[C@@H](CO)C(=O)N[C@@H](CC(C)C)C(=O)N[C@@H](CC(=O)O)C(=O)N[C@H](C(=O)N1CCC[C@H]1C(=O)N[C@H](C(=O)NCC(=O)N[C@@H](CC(C)C)C(=O)N[C@@H](CC(C)C)C(=O)N[C@@H](CCC(N)=O)C(=O)N[C@H](C(=O)N[C@@H](CC(C)C)C(=O)N[C@@H](CC(C)C)C(=O)N[C@@H](CCC(=O)O)C(=O)N[C@@H](CCC(N)=O)C(=O)N[C@@H](CCC(=O)O)C(=O)N[C@@H](CCCCN)C(=O)N[C@@H](CCC(N)=O)C(=O)N[C@@H](CCCNC(=N)N)C(=O)N[C@@H](C)C(=O)N[C@@H](C)C(=O)N[C@@H](CCCNC(=N)N)C(=O)N[C@@H](CCC(=O)O)C(=O)N[C@@H](CCC(N)=O)C(=O)N[C@@H](C)C(=O)N[C@H](C(=O)N[C@H](C(=O)N[C@@H](CC(N)=O)C(=O)N[C@@H](C)C(=O)N[C@@H](CCCNC(=N)N)C(=O)N[C@H](C(=O)N[C@@H](CC(C)C)C(=O)N[C@@H](C)C(=O)N[C@@H](CCCNC(=N)N)C(=O)N[C@H](C(N)=O)C(C)C)[C@@H](C)CC)[C@@H](C)O)[C@@H](C)O)[C@@H](C)CC)[C@@H](C)CC)C(C)C)C(C)C [compound 115] (H-IVLSLDVPIGLLQILLEQEKQRAAREQATTNARILARV-NH2; N-terminus assumed) | 98 | 7 |  |
| CC[C@H](C)[C@H](NC(=O)[C@H](CC(=O)O)NC(=O)[C@H](CC(C)C)NC(=O)[C@H](CC(C)C)NC(=O)[C@H](CCCCN)NC(=O)[C@H](CCCNC(=N)N)NC(=O)[C@H](CC(N)=O)NC(=O)[C@H](CO)NC(=O)[C@H](Cc1c[nH]cn1)NC(=O)[C@H](C)NC(=O)[C@H](CCC(N)=O)NC(=O)[C@H](CCC(N)=O)NC(=O)[C@H](C)NC(=O)[C@H](CC(C)C)NC(=O)[C@H](CCC(N)=O)NC(=O)[C@H](CC(=O)O)NC(=O)[C@H](C)NC(=O)[C@H](CCCCN)NC(=O)[C@@H](NC(=O)[C@H](CCSC)NC(=O)[C@H](CCC(=O)O)NC(=O)[C@H](CC(C)C)NC(=O)[C@@H](NC(=O)[C@H](CCC(=O)O)NC(=O)[C@H](CCCNC(=N)N)NC(=O)[C@H](CC(C)C)NC(=O)[C@H](CC(C)C)NC(=O)[C@H](Cc1c[nH]cn1)NC(=O)[C@H](Cc1ccccc1)NC(=O)[C@@H](NC(=O)[C@H](CC(C)C)NC(=O)[C@H](CC(=O)O)NC(=O)[C@H](CC(C)C)NC(=O)[C@H](CO)NC(=O)[C@@H](NC(=O)[C@@H]1CCCN1C(=O)[C@@H]1CCCN1C(=O)[C@H](CCC(=O)O)NC(=O)[C@H](CCC(N)=O)NC(=O)[C@@H](N)CO)[C@@H](C)CC)[C@@H](C)O)C(C)C)[C@@H](C)O)C(=O)N[C@@H](C)C(N)=O [oCRF, sheep corticotropin releasing factor, reference compound] |  |  | EC50 (CRF2R): > 100 nM; Emax (CRF2R; Emax, read-out: CRF2R (Emax %)): 33%; EC50 (CRF1R): 27.4 nM; Emax (CRF1R; Emax, read-out: CRF1R (Emax %)): 98% |
| CC[C@H](C)[C@H](NC(=O)[C@H](C)NC(=O)[C@H](CC(N)=O)NC(=O)[C@H](CCC(N)=O)NC(=O)[C@H](CCC(=O)O)NC(=O)[C@H](C)NC(=O)[C@H](CCCNC(=N)N)NC(=O)[C@H](CCC(=O)O)NC(=O)[C@H](CCCNC(=N)N)NC(=O)[C@H](CCC(N)=O)NC(=O)[C@H](CO)NC(=O)[C@H](CCC(N)=O)NC(=O)[C@@H](NC(=O)[C@H](CCCNC(=N)N)NC(=O)[C@H](C)NC(=O)[C@H](CC(C)C)NC(=O)[C@H](CCC(=O)O)NC(=O)[C@H](CC(C)C)NC(=O)[C@H](CC(C)C)NC(=O)[C@@H](NC(=O)[C@H](CCCNC(=N)N)NC(=O)[C@H](CC(C)C)NC(=O)[C@H](CC(C)C)NC(=O)[C@H](Cc1ccccc1)NC(=O)[C@H](Cc1ccccc1)NC(=O)[C@@H]1CCCN1C(=O)[C@H](CC(C)C)NC(=O)[C@H](CC(=O)O)NC(=O)[C@@H](NC(=O)[C@H](CO)NC(=O)[C@H](CC(C)C)NC(=O)[C@H](CO)NC(=O)[C@@H]1CCCN1C(=O)[C@H](CC(N)=O)NC(=O)[C@@H](N)CC(=O)O)[C@@H](C)CC)[C@@H](C)O)[C@@H](C)O)C(=O)N[C@H](C(=O)N[C@@H](Cc1ccccc1)C(=O)N[C@@H](C)C(=O)N[C@@H](CO)C(=O)N[C@H](C(N)=O)C(C)C)[C@@H](C)CC [compound 184] (H-DNPSLSIDLPFFLLRTLLELARTQSQRERAEQNAIIFASV-NH2; N-terminus assumed) | 96.5 | 77.3 |  |
| SQEPPISLDLPLELLREVLEMTKADQLAQQAHSNRKLLDIA-NH2 [compound 89] | 12.7 |  |  |
| CC[C@H](C)[C@H](N)C(=O)N[C@H](C(=O)N[C@@H](CC(C)C)C(=O)N[C@@H](CO)C(=O)N[C@@H](CC(C)C)C(=O)N[C@@H](CC(=O)O)C(=O)N[C@H](C(=O)N1CCC[C@H]1C(=O)N[C@H](C(=O)NCC(=O)N[C@@H](CC(C)C)C(=O)N[C@@H](CC(C)C)C(=O)N[C@@H](CCC(N)=O)C(=O)N[C@H](C(=O)N[C@@H](CC(C)C)C(=O)N[C@@H](CC(C)C)C(=O)N[C@@H](CCC(=O)O)C(=O)N[C@@H](CCC(N)=O)C(=O)N[C@@H](CCC(=O)O)C(=O)N[C@@H](CCCCN)C(=O)N[C@@H](C)C(=O)N[C@@H](CCCNC(=N)N)C(=O)N[C@@H](C)C(=O)N[C@@H](C)C(=O)N[C@@H](CCCNC(=N)N)C(=O)N[C@@H](CCC(=O)O)C(=O)N[C@@H](CCC(N)=O)C(=O)N[C@@H](C)C(=O)N[C@H](C(=O)N[C@H](C(=O)N[C@@H](CC(N)=O)C(=O)N[C@@H](C)C(=O)N[C@@H](CCCNC(=N)N)C(=O)N[C@H](C(=O)N[C@@H](CC(C)C)C(=O)N[C@@H](C)C(=O)N[C@@H](CCCNC(=N)N)C(=O)N[C@H](C(N)=O)C(C)C)[C@@H](C)CC)[C@@H](C)O)[C@@H](C)O)[C@@H](C)CC)[C@@H](C)CC)C(C)C)C(C)C [compound 107] (H-IVLSLDVPIGLLQILLEQEKARAAREQATTNARILARV-NH2; N-terminus assumed) | 87.9 |  |  |
